Test results published in ChEMBL document CHEMBL1201862, “PubChem BioAssay data set” (2004).
The source made the active and inactive calls.

What was measured:
[1] = target: T1, RNA-binding protein pos-1 (Caenorhabditis elegans, UniProt G5EF15); experiment: inhibitors of POS-1/mex-3 RNA binding, dose response, biochemical, fluorescence polarization (AID 1964);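 further: purified POS-1 fused to maltose binding protein made in E. coli; potency of compounds blocking POS-1 binding to fluorescent RNA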
T1 sequence (G5EF15 whole entry): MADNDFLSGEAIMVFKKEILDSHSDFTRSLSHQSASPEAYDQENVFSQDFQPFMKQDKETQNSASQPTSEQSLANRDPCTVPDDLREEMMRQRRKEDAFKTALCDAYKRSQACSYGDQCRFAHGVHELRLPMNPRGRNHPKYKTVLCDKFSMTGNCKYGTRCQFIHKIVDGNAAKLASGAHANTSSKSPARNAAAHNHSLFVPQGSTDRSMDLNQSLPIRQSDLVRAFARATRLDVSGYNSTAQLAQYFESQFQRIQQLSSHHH

[2] = target: T2, Zinc finger protein mex-5 (Caenorhabditis elegans, UniProt Q9XUB2); experiment: MEX-5/TCR-2 RNA interaction inhibitors, dose response, biochemical, C. elegans, fluorescence polarization (AID 1960)
T2 sequence (Q9XUB2 whole entry): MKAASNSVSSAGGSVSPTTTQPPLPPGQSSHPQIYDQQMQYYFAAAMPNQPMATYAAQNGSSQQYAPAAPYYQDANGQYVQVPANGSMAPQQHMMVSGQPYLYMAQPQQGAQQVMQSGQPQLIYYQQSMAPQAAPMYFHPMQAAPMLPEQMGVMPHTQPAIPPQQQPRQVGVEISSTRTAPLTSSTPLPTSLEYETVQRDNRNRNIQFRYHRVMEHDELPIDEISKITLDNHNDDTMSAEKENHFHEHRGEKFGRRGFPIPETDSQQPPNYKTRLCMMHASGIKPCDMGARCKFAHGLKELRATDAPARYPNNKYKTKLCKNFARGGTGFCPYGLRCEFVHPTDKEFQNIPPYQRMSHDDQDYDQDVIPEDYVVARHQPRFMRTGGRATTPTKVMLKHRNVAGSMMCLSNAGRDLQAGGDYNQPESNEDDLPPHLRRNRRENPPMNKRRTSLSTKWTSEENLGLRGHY

[3] = target: T3, E3 ubiquitin-protein ligase XIAP (Homo sapiens, UniProt P98170); experiment: Counter Screen using XIAP-Bir3 for Chemical Antagonists of Bir1/2 domains of IAP-family anti-apoptotic proteins. [Related pubchem assays (depositor defined):AID1018, AID1449, AID1514, AID1638, AID1749, AID1750, AID488957, AID488963]
[4] = target: T3, E3 ubiquitin-protein ligase XIAP; experiment: XIAP antagonists, biochemical, IAP family, fluorescence polarization (AID 1018); type: functional
Tumor necrosis factor = Tumor necrosis factor (Homo sapiens, UniProt P01375); experiment: TNFa-triggered NF-kB activation inhibitors, SAR follow-up, cell-based, revised (AID 2337); type: functional
[5] = target: T4, Nucleotide-binding oligomerization domain-containing protein 1 (Homo sapiens, UniProt Q9Y239); experiment: NOD1 signaling inhibitors, SAR follow-up, revised (AID 2333); type: functional
T4 sequence (Q9Y239 whole entry): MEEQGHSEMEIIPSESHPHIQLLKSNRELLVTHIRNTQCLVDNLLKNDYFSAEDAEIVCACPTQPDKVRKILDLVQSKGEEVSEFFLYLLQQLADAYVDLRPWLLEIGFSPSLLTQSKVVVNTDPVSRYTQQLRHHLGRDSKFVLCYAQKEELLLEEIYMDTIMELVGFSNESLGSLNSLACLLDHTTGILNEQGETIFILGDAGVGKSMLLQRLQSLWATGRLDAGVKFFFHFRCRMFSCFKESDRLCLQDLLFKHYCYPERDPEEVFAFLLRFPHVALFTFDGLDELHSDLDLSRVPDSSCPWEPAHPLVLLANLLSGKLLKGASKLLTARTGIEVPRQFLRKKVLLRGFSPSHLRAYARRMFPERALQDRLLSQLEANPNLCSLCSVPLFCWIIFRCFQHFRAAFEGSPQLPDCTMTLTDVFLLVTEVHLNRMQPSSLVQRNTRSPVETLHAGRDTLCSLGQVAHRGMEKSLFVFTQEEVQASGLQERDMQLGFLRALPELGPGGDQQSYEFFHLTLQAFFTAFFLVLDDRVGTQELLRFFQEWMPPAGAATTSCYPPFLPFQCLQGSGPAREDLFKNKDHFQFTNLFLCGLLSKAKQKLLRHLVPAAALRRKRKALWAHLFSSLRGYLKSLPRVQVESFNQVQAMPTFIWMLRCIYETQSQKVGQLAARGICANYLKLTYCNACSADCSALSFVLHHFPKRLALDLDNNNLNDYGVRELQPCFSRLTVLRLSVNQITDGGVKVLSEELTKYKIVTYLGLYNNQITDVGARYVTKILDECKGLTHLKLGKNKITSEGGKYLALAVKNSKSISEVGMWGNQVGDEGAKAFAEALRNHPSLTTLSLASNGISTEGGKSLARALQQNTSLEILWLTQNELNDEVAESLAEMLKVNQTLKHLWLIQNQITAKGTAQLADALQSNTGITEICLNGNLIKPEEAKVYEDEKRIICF

HEK293 = experiment: cells; settings: Homo sapiens;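 further: cells exposed to compound for 14 hours overnight before viability readout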
Trypsin = Trypsin (Sus scrofa, UniProt P00761); experiment: porcine trypsin inhibitors, dose response, selectivity assay for Rce1 protease inhibitor project, biochemical, quenched peptide fluorescence, cherry-pick (AID 488789)
CAAX prenyl protease 2 [6] = target: T5, CAAX prenyl protease 2 (Homo sapiens, UniProt Q9Y256); experiment: human Rce1 protease inhibitors, dose response, biochemical, yeast membranes, quenched-peptide fluorescence, cherry-pick (AID 588849)
T5 sequence (Q9Y256 whole entry): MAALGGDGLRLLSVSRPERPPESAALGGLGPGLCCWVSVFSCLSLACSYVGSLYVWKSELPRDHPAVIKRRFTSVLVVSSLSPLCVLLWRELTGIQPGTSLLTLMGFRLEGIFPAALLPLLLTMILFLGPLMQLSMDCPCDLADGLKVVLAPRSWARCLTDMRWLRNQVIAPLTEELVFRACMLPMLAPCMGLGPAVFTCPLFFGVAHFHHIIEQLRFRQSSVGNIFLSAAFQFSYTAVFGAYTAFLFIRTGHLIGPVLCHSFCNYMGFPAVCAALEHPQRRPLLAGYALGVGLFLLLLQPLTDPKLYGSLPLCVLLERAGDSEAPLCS

CAAX prenyl protease 2 [7] = target: T6, CAAX prenyl protease 2 (Saccharomyces cerevisiae S288c, UniProt Q03530); type: biochemical
T6 sequence (Q03530 whole entry): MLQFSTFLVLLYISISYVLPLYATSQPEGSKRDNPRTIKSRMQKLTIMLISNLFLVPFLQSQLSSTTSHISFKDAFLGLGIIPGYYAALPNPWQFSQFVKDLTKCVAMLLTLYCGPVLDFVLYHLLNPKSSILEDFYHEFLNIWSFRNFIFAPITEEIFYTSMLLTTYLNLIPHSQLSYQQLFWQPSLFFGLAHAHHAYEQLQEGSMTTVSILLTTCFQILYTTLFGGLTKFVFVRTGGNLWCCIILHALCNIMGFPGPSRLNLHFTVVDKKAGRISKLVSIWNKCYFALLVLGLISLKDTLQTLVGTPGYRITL

[8] = cytotoxicity in HPDE-C7 cells, cell-based, fluorescence, HTS (AID 430); type: functional; settings: Homo sapiens
[9] = cytotoxicity in KRAS-transformed pancreatic duct cells, primary screen, cell-based, fluorescence, HTS (AID 431); type: functional; settings: Homo sapiens;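 further: cell line used: HPDE-C7K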
[10] = THP-1 cell cytotoxicity, dose response, cytotoxicity control for non-replicating M. tuberculosis project (AID 489025); type: functional
cells = type: functional
Jurkat = experiment: antigen receptor-induced NF-kB inhibitors, dose response, Jurkat, luciferase reporter, luminescence, B- and T-cell (AID 489004); type: functional, cell-based; settings: Homo sapiens;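 further: NF-kB luciferase reporter Jurkat cells stimulated with PMA plus ionomycin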
[11] = cytotoxicity in HEK-293T NF-kB-Luc cells, dose response, cytotoxicity control for B/T-cell NF-kB inhibitor project, cell-based, uHTS hits (AID 489019); type: functional;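 further: IC50 reflects cytotoxicity as loss of cell viability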
INS1 = experiment: beta cell apoptosis inhibitors, cytokine rescue, dose response, luminescence, retest (AID 449756); type: functional, cell-based; settings: Rattus norvegicus;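 further: cell death triggered by IL-1 beta plus TNF-alpha plus IFN-gamma mixture; protective hits raise ATP signal compared with cytokine alone wells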
[12] = inhibitors of firefly luciferase expression or activity, dose response, H4 neuroglioma cells, luminescence (AID 1990); type: functional, cell-based
[13] = Luminescence Cell-Based Dose Response HTS to Identify Inhibitors of 5'UTR Stem-Loop Driven Prion Protein mRNA Translation in H4 Neuroglioblastoma Cells. [Related pubchem assays: 1827 (Project Summary), 1813 (Primary HTS)]; type: functional
[14] = inhibitors of SNCA 5'UTR-driven reporter translation, confirmation, H4 neuroglioma cells, luminescence (AID 1988); type: functional, cell-based
[15] = inhibitors of intracellular T. cruzi replication, confirmation, NIH3T3 host cells, beta-gal luminescence (AID 2044); type: functional, cell-based;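 further: intracellular parasites grown in NIH/3T3 mouse fibroblasts as host cells; luminescent beta-galactosidase reporter signal from transgenic T. cruzi replicating inside host cells; inhibitors lower the luminescence signal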
[16] = cytotoxicity toward NIH3T3 fibroblasts, dose response, counter-screen, cell-based, ATP luminescence, mouse fibroblasts (AID 2010); type: functional;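 further: cells exposed to compound for about 90 hours before reading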
[17] = Shn3 3'UTR reporter inhibitors, dose response, cell-based, Clone20 osteoblasts, firefly luciferase, cherry-picked (AID 624132); type: functional;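 further: firefly luciferase luminescence from reporter carrying the Shn3 3'UTR in osteoblasts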
[18] = HepG2 cell cytotoxicity, dose response, cytotoxicity control for Shn3 inhibitor project, CellTiter-Glo, cherry-picked (AID 624134); type: functional, cell-based
[19] = control 3'UTR Renilla luciferase suppression, dose response, counter-screen for Shn3 inhibitor project, cell-based, Clone20-Shn3RL, cherry-picked (AID 624133); type: functional
Hexokinase HKDC1 = target: T7, Hexokinase HKDC1 (Homo sapiens, UniProt Q2TB90); experiment: HKDC1 hexokinase inhibitors, dose response, biochemical, W721R variant (AID 504729); type: functional
T7 sequence (Q2TB90 whole entry): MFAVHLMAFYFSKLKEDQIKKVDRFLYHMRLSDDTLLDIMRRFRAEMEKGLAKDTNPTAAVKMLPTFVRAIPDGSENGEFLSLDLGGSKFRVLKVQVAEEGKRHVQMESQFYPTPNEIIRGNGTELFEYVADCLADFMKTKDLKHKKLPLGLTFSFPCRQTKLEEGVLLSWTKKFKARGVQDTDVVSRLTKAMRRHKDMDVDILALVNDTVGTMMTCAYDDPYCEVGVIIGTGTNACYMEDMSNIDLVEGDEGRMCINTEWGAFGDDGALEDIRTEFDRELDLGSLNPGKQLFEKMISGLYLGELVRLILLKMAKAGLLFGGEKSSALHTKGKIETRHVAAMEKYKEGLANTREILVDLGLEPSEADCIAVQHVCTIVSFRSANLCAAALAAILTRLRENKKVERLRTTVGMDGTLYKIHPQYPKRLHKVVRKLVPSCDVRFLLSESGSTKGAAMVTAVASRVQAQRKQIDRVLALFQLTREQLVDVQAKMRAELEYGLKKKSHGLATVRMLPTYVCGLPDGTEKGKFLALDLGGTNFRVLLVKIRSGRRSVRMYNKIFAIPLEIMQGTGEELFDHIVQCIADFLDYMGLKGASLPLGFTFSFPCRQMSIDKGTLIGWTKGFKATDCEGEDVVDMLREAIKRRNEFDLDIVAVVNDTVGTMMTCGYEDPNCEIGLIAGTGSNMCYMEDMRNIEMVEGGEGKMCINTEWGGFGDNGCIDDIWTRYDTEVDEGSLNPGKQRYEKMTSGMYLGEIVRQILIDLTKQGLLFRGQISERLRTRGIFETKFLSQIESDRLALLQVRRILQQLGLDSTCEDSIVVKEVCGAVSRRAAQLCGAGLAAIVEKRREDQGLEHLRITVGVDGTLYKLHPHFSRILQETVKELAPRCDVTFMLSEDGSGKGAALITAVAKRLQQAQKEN

T3 sequence (P98170 whole entry): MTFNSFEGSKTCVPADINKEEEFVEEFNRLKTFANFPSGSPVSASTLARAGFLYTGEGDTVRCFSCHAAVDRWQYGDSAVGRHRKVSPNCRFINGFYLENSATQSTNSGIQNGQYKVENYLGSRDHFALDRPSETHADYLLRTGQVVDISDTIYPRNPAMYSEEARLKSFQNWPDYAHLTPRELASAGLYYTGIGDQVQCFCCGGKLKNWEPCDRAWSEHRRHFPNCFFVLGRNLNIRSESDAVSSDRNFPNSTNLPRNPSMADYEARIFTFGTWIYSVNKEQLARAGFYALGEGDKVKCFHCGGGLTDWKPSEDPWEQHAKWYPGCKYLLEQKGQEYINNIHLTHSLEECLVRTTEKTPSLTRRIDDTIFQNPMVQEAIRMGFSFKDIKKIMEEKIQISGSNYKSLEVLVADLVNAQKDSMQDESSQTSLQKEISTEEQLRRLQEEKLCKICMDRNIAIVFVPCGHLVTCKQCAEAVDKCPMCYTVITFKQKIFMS
Chain of Trypsin (P00761 whole entry): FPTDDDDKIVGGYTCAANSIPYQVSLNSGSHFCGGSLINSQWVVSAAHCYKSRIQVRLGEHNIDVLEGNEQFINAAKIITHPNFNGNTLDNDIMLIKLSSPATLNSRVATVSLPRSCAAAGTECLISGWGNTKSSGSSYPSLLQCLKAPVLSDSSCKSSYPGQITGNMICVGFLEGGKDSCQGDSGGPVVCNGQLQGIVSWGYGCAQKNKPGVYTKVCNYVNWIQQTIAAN
Chain of Tumor necrosis factor (P01375 whole entry, the tested form may be a part): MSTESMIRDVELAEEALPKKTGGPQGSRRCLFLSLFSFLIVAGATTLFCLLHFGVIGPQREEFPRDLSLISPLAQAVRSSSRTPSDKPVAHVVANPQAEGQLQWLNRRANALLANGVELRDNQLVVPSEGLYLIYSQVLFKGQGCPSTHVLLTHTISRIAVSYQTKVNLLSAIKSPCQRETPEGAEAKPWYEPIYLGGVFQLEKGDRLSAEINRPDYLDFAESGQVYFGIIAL

Cc1cc(O)n2nc(N)c(N=Nc3ccccc3)c2n1
EC50 [1]: 37.8 µM (active)
EC50 [2]: 15.2 µM (active)
IC50 [3]: > 100 µM (inactive)
IC50 [4]: > 100 µM (not active)

C=C(C)C1CC=C(C)/C(=N/NC(=O)CNc2ccc(C)cc2C)C1 (configuration not stated)
IC50 [3]: > 100 µM (inactive)
IC50 [4]: > 100 µM (not active)

CC(=O)Nc1ccc(NC(=O)c2ccc(CN3CCc4ccccc4C3)cc2)cc1
IC50 (Tumor necrosis factor): > 20 µM (inactive)
IC50 [5]: > 20 µM (inactive)
IC50 (HEK293): > 20 µM (inactive)

C=CCn1cc(-c2ccccc2)cc(C#N)c1=O
AC50 (Trypsin): 7.96 µM (active)
AC50 (CAAX prenyl protease 2 [6]): 6.89 µM (active)

CCOC(=O)c1nc2cc3n(c(C)c-2c1C)C(C)C(CC)=C3C (configuration not stated)
AC50 (Trypsin): 7.97 µM (active)
AC50 (CAAX prenyl protease 2 [7]): 8.32 µM (active)
AC50 (CAAX prenyl protease 2 [6]): 8.45 µM (active)

O=C(Oc1cccc2cccnc12)c1ccc2c(c1)OCCO2
EC50 [8]: 5.8 µM (active)
EC50 [9]: 7.02 µM (active)
CC50 [10]: 22.8 µM (active)
IC50 (cells): 3.9 µM (active)

C=C1C(O)[C@@H]2O[C@]3(CC[C@H](/C=C/C(C)[C@@H]4CC(C)=CC5(O[C@H](C[C@@](C)(O)C(=O)O)CCC5O)O4)O3)CC[C@H]2O[C@@H]1C(O)CC(C)[C@H]1OC2(CCCCO2)CCC1C (some centres not stated)
IC50 (Jurkat): 0.17 µM (active)
IC50 [11]: > 80 µM (inactive)
AC50 (INS1): < 0.195 µM (active)

c1ccc(CCNc2ccnc3cc4ccccc4cc23)cc1
EC50 [12]: > 120 µM (not active)
EC50 [13]: 17.3 µM (active)
EC50 [14]: 7.98 µM (active)
EC50 [15]: 1.68 µM (active)
EC50 [16]: > 30 µM (not active)
AC50 (Trypsin): 11.2 µM (active)
AC50 (CAAX prenyl protease 2 [7]): 12.8 µM (active)
AC50 (CAAX prenyl protease 2 [6]): 94 µM (active)
AC50 [17]: 1.62 µM (active)
AC50 [18]: 8.78 µM (active)
AC50 [19]: 3.45 µM (active)

COc1ccccc1-c1coc2c(CN3CCOCC3)c(O)ccc2c1=O
AC50 (Trypsin): 44.4 µM (active)
AC50 (CAAX prenyl protease 2 [7]): 52.5 µM (active)
AC50 (CAAX prenyl protease 2 [6]): 11.8 µM (active)

Cc1cc(C)n2nc(SCc3nnc(SCc4ccccc4C)s3)nc2n1
IC50 (Hexokinase HKDC1): 5.17 µM (active)
AC50 (INS1): 22.9 µM (active)
